The values that follow are results of earlier work, collected in patent US7579489B2, “Processes for the preparation and purification of hydroxymethylfuraldehyde and derivatives” (Archer-Daniels-Midland Company, priority 2004, dated 2009).

Structures are written as SMILES.

For the data set the following is noted: water/octanol; values taken from Hansch & Leo (1979) and Leo, Hansch & Elkins (1971).
In general, Log P refers to the decadic logarithm of the partition coefficient of the neutral form, usually between octanol and water. On to `CCC(C)=O` [2-Butanone], for which the lipophilicity (Log P) is reported as 0.29. Regarding `CCCCCC(C)=O` [2-Heptanone], the “Log P” value is 1.83. Regarding `CCCC(C)=O` [2-Pentanone], the “Log P” value was 0.91.

As to `CCCCOC(C)=O` [Butyl acetate], the “Log P” value is reported as 1.71. Consider `ClC(Cl)Cl` [Chloroform], for which the “Log P” value is 2.24. With `C1COCCO1` [Dioxane], the lipophilicity (Log P) is recorded as −0.27. In the case of `CCOC(C)=O` [Ethyl acetate], the lipophilicity (Log P) is reported as 0.66.

With `NC=O` [Formamide], the “Log P” value was −1.51. As for `CC(=O)CC(C)C` [Methyl isobutyl ketone], the “Log P” value was 1.32.
